Data taken from patent US20230043035A1, “AGAROPHYTON CHILENSIS EXTRACT, RICH IN FREE FATTY ACIDS, AS A NUTRACEUTICAL OR NUTRITIONAL SUPPLEMENT, SUITABLE FOR MODULATING PPAR# ACTIVITY” (UNIVERSIDAD ANDRES BELLO, priority 2019, published 2023).

Key:
cortical neurons = assay: Neuroprotection assay: cortical neurons damaged with oligomycin A, MTT viability; format: cell-based, rat
Description: To assess the neuroprotective capacity of Extract B, a model of neuronal damage caused by chemical ischemia was used, preferably the model of damage caused by oligomycin A. Oligomycin A is a macrolide that blocks oxidative phosphorylation, inhibiting mitochondrial ATP synthase.
In order to assess the neuroprotective capacity, a primary culture of cortical neurons of stage E18 rat embryos was used. To this end, adult female rats were acquired, pregnant at stage 18, from the CINBIOT bioterium of the Faculty of Biological Science, Pontificia Universidad Católica de Chile. […]
On the 9th of culture, the challenge with oligomycin A was carried out. […] Thereafter, neuronal viability was determined, by removing the entire culture medium, it was washed once with PBS and incubated with 0.5 mg/mL of MTT in neurobasal medium without phenol red at 37° C. for 2 hours to establish the mitochondrial activity, wherein MTT (yellow) is transformed into MTT formazan (dark blue), when reduced by live cells. […] Subsequently, 100 μl of this solution were moved to a 96-wel plate to measure absorbance at 570 nm and 620 nm in spectrophotometer. The difference between absorbances (570-620) was calculated, and the survival was estimated relative to the control treated with DMSO and without damage caused by oligomycin A. The presence of MTT formazan is quantified at 570 nm. […]

3T3-L1 cells [1] = assay: Differentiation of 3T3-L1 cells into adipocytes, Oil Red O accumulation; format: cell-based; conditions: 25 μM, 3T3-L1, day 10, n=4
Procedure: (§1) In order to assess the effect of the claimed extracts on differentiation of fibroblasts into adipocytes, 3T3-L1 cells are cultured at low passage, avoiding cells from reaching confluence. […] Thereafter, the maintenance medium was replaced.

3T3-L1 cells [2] = assay: MTT viability assay in 3T3-L1 cells of the differentiation assay; format: cell-based; conditions: 25 μM, 3T3-L1, n=3
Procedure: In order to assess the effect of the claimed extracts on differentiation of fibroblasts into adipocytes, 3T3-L1 cells are cultured at low passage, avoiding cells from reaching confluence. […] Thereafter, the maintenance medium was replaced. […] After removing MTT, DMSO (99.9%) was added to lyse cells and dissolve MTT/MTT formazan. In order to assess absorbance at 570 nm and 620 nm in a spectrophotometer, 100 μl of this solution were moved to a 96-well plate. The difference between absorbances was calculated, and the survival relative to the control (DMSO) was determined.

fabp4 gene = assay: mRNA expression of adipocyte differentiation marker fabp4 in 3T3-L1 cells (qPCR); format: cell-based; conditions: 25 μM, 3T3-L1, day 7, n=3
Procedure: as §1

PPARγ = molecular target: T1, PPARγ (Homo sapiens, UniProt P37231); assay: PPARγ activation assay (gal4 PPARγ reporter gene) in PC12 cells; format: cell-based; conditions: 25 μM, n=10
T1 construct: GAL4 (fusion partner); expressed in transfected cells; host or cells: PC12 cells, transiently transfected with Lipofectamine 2000
T1 sequence (P37231 238-503 limits assumed): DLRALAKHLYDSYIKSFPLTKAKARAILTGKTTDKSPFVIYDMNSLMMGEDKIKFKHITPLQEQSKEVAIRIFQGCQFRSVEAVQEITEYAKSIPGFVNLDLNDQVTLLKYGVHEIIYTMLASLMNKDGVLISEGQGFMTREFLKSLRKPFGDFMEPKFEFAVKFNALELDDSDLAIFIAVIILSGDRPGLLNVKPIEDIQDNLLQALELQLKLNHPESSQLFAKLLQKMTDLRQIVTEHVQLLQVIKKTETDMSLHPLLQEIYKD
Procedure: In the PPARγ activation assay, an assay with the reporter gene gal4 PPARγ is performed, which allow assessing the activation of PPARγ induced by ligand, to which end concentrations of 30 and 60 μg/mL were used. PC12 cells were seeded in a 48-well plate at a density of 100,000 cells/well/250 μL of maintenance medium containing the medium RPMI1640® (Roswell Park Memorial Institute-1640 Medium) supplemented with 10% of horse serum (HS), 5% of fetal bovine serum (FBS) and 1× antibiotic/antimicotic (Ab-Am). Then, the DNA (0.8 μg luciferase plasmid (MH100tkLUC), 0.8 μg PPARγGAL4 plasmid and 0.053 μg β-galactosidase plasmid, (β-Gal)) were mixed in OptiMEM® (Opti-Minimun Essential Medium). This constitutes the DNA mixture. In parallel, lipofectamine 2000 was diluted in OptiMEM®. This constitutes the Lipofectamine® mixture. […] The lysate was collected, centrifuged for 1 minute at 14000 rpm, the β-galactosidase and luciferase activity in the supernatant was measured, and the times of PPARγ activation was calculated relative to the DMSO control (final concentration in the medium of 0.1%). In parallel, the activity of β-galactosidase was assessed (colorimetry). […] The activity results were expressed as times of increase in relation to the activity obtained with control cells (treated only with DMSO). […]

## CC[C@@H]1/C=C/C=C/C[C@H](C)[C@H](O)[C@](C)(O)C(=O)[C@H](C)[C@@H](O)[C@H](C)C(=O)[C@H](C)[C@@H](O)[C@H](C)/C=C/C(=O)O[C@H]2[C@@H](C)[C@@H](CC1)O[C@@]1(CC[C@@H](C)[C@@H](C[C@H](C)O)O1)[C@@H]2C [oligomycin A, Oligomycin A]
Cortical neurons; oligomycin A 2 μM 30 min, no extract, rat cortical neurons
  neuronal viability after oligomycin A, % of undamaged DMSO control: 22.5%

## vitamin E
Cortical neurons; 10 μM alone, data not shown
  protection against oligomycin A: does not provide protection

## CC(C)C[C@H](NC(=O)OCC1c2ccccc2-c2ccccc21)C(=O)O [FMOC-Leu]
3T3-L1 cells [1]
  Oil Red O (neutral lipid) accumulation, times relative to control: 1.1
3T3-L1 cells [2]
  cell survival (MTT) relative to control (DMSO): 100%
fabp4 gene
  fabp4 mRNA expression, times relative to control DMSO: 1.7 times
PPARγ
  PPARγ transcriptional activity, times higher than negative control: 14.7 times
